Literature values in paper PMC10712729, “A Phase I Trial of the Dual MET Kinase/OCT-2 Inhibitor OMO-1 in Metastatic Solid Malignancies Including MET Exon 14 Mutated Lung Cancer” (The Oncologist, 2023).

Tests used:
[1] = in vivo; cited from earlier work
[2] = set-up: method as in PMID 32469185, PMID 32877583; conditions: cited from earlier work
METex14 mutated NSCLC = system: METex14 mutated NSCLC; set-up: method as in PMID 32469185, PMID 32877583; conditions: METex14 mutated NSCLC ref 9, 10; cited from earlier work

Compound: Cn1cc(-c2ccc3nnc(C(F)(F)c4ccc5ncccc5c4)n3n2)cn1 [JNJ-38877605]
- renal toxicity [1]: renal toxic properties

Compound: CNC(=O)c1ccc(-c2cnc3ncc(Cc4ccc5ncccc5c4)n3n2)cc1F [capmatinib]
- diarrhea, all grades [2]: 17%
- nausea, all grades [2]: 46%
- vomiting, all grades [2]: 26%
- median response duration (METex14 mutated NSCLC): 12.6 months
- object response rates (METex14 mutated NSCLC): 68%

Compound: CN1CCC(COc2cnc(-c3cccc(Cn4nc(-c5cccc(C#N)c5)ccc4=O)c3)nc2)CC1 [tepotinib]
- diarrhea, all grades [2]: 22%
- nausea, all grades [2]: 26%
- vomiting, all grades [2]: 6%
- median response duration (METex14 mutated NSCLC): 10.8 months
- object response rates (METex14 mutated NSCLC): 43%
